Reference: patent US20230028293A1, “MULTIPLE MYELOMA COMBINATION THERAPIES BASED ON PROTEIN TRANSLATION INHIBITORS AND IMMUNOMODULATORS” (The Regents of the University of Colorado, a body corporate, priority 2019, published 2023)
Where “and” joins values, the source holds several entries; their conditions need not be identical. Identical values can stand only once.

How the values were obtained:
BCL2 = experiment: Quantitative intracellular flow cytometry of BCL2; format: cell-based; conditions: 50 nM, 6 h
Method: (§1) Quantitative flow cytometry was used to measure MCL1 and BCL2 densities per cell. Anti-MCL1 and anti-BCL2 antibodies were labeled with Alexa Fluor 647 (Molecular Probes/life Technologies) according to manufacturer's instructions. Intracellular staining of MCL1 and BCL2 was conducted following permeabilization with the Cytofix/Cytoperm kit (BD). Mean fluorescence intensity was converted to molecules of equivalent soluble fluorochrome (MESF) by generating a standard curve with Quantum™ beads (Bangs Labs, Fishers, Ind.). The fluorophore-to-antibody ratio of the labeled antibodies was determined using Simply Cellular® anti-mouse IgG beads (Bangs Labs). Finally, conversion of MESF to cell surface antigen density was calculated by dividing by the fluorophore-to-antibody ratio.

[1] = test system: IMiD-resistant relapsed MM patient sample; experiment: Two-drug combination matrix in primary MM patient sample, ZIP synergy; format: cell-based, human
Method: (§2) Drug combination studies were set up using a full matrix design with myeloma cell lines or primary samples. Synergy was calculated using ZIP delta score via the SnergyFinder online tool (synergyfinder.fimm.fi). Combination index values were calculated using the CompuSyn software (ComboSyn Inc).

MM cell lines = experiment: Two-drug combination matrix in MM cell lines, ZIP synergy; format: cell-based
Method: In this example, possible candidates for use in combination with omacetaxine were examined, focusing on those that are currently clinically available. Omacetaxine was applies in combination with various anti-myeloma agents to MM cell lines Amo-1, L363, and U266 in two-drug combination matrices, with cell viability being measured after 96 h incubation. […] The […] for synergy of omacetaxine with Len and Pom were 13.89 and 11.24, respectively, with a broad range of concentrations showing a productive interaction (FIGS. 6B and 6D).
(§3) Either CellTiter-Glo Luminescent Cell Viability or CellTiter 96 AQueous MTS Cell Proliferation assay (Promega, Madison Wis.) were used to generate dose response curves of myeloma cell line proliferation treated with various anti-myeloma agents. Working solutions of CellTiter-Glo or CellTiter AQueous reagent were prepared per manufacturer instructions. Cells were combined with drug of interest at a concentration of 50,000 cells/well and incubated in 96-well culture plates at 37° C. for 96 h. After the incubation, the viability or proliferation results were obtained via Vmax Kinetic Microplate Reader (Molecular Devices, Sunnyvale Calif.). Cell line toxicity was also measured using high throughput flow cytometry.
as §2

MM1.S cells = experiment: Whole cell proteomics of treated MM cells; format: cell-based; conditions: omacetaxine 4 h, pomalidomide 24 h, staggered combination
Method: Whole cell proteomics of MM cells treated with the omacetaxine/pomalidomide combination were compared to single agent treatments at a timepoint before substantial apoptosis or cell death began. Although omacetaxine is rapidly cytotoxic to MM cells, the cytotoxicity of pomalidomide occurs after a longer delay, with apoptosis and cell death beginning at 24 h (FIG. 10A). […] For proteomics, MM1.S cells were treated in triplicate with omacetaxine for 4 h, pomalidomide for 24 h, or the staggered combination treatment and compared to untreated controls.
Cells were lysed with RIPA buffer (Thermo Fisher Scientific) and digested according to the FASP protocol. Recovered peptides were dried, desalted, and concentrated on Thermo Scientific Pierce C18 Tips. Cell lysates were analyzed using an Orbitrap Fusion mass spectrometer connected to an EASY-nLC 1200 system (Thermo Fisher Scientific) with a nanoelectrospray ion source. Data was acquired using the Xcaliburm (version 4.1) software. MS/MS spectra were extracted, and Proteome Discoverer Software (ver. 2.1.0.62) was used to convert the raw data into mgf files. The files were then searched against a human database using an in-house Mascot server (Version 2.6, Matrix Science). Scaffold (version 4.8, Proteome Software, Portland, Oreg.) was used to validate MS/MS based peptide and protein identifications. […]

[2] = test system: U266, H929, MM1.S, MM1.R and RPMI-8226 MM cell lines; experiment: MM cell line proliferation / cytotoxicity assay (CellTiter-Glo or MTS); format: cell-based; conditions: range over five MM cell lines, 96 h incubation; read-out: EC50 of inhibition of cell proliferation
Method: Omacetaxine was tested in MM cell lines in vitro and in MM patient bone marrow aspirates ex vivo. The reported cytotoxicity of omacetaxine was verified in cell culture using the U266, H929, MM1.S, MM1.R and RPMI-8226 MM cell lines. […] In a timecourse study, omacetaxine-mediated induction of apoptosis started at 2 h, and cell death began after 24 h (FIGS. 1B, 1C, and 2A).
as §3

MCL1 = experiment: Quantitative intracellular flow cytometry of MCL1; format: cell-based; conditions: 50 nM, 6 h
Method: as §1

Structure (SMILES): COC(=O)C[C@](O)(CCCC(C)(C)O)C(=O)O[C@@H]1C(OC)=C[C@]23CCCN2CCc2cc4c(cc2[C@H]13)OCO4 [omacetaxine, Omacetaxine mepesuccinate]
- Bcl-2 level in myeloma cells (BCL2): does not decrease
- effect of combination with Pom on IMiD sensitivity of patient MM cells ([1]; IMiD-resistant relapsed patient sample): re-sensitized
- ZIP δ-score for synergy with Pom in patient sample ([1]; IMiD-resistant relapsed patient sample HTB-576): 22.68 and 22.7
- combination with dexamethasone versus single agent omacetaxine (MM cell lines; L363 and U266 cells): decreased activity
- synergy with lenalidomide (cell viability) (MM cell lines; combination with Len, 96 h): synergistic in all cell lines tested
- synergy with pomalidomide (cell viability) (MM cell lines; omacetaxine combined with Pom, 96 h): synergistic in all cell lines tested
- synergy with dexamethasone, over cell lines tested (MM cell lines; three MM cell lines): synergistic in only ⅓ MM cell lines tested
- proteins among the most downregulated versus untreated controls (MM1.S cells): IGL1 and JCHAIN
- EC50 [2]: 15 to 35 nM
- MCL1 expression in myeloma cells (MCL1): rapidly downregulated
